Assay results from US20110177105A1, “Novel Selective Inhibitors of Ubiquitin Specific Protease 7, the Pharmaceutical Compositions Thereof and Their Therapeutic Applications” (priority 2010, published 2011).

What follows are compounds tested against USP7 (Homo sapiens, UniProt Q93009) (assay: HA-Ub-VS labeling of active DUBs in HCT116 cell lysates). Conditions: different doses (100 μM to 3 μM).
Assay type: biochemical
Design: endogenous in cells; host or cells: HCT116 (inducible USP7 shRNA line) cell lysate
From the text: The C-terminally modified vinyl sulfone derivative of ubiquitin, UbVS, was clearly helpful for a direct visualization of active DUBs in cells. This tool, which binds covalently to the cysteine active site of deubiquitinating enzymes, was successfully applied to discover and characterize novel ubiquitin/ubiquitin-like proteases and to profile active deubiquitinating enzymes in normal, virus-infected, and malignant cells (Borodovsky et al., Chem Biol 2002, 9, 1149-1159, Hemelaar et al., Mol Cell Biol 2004, 24, 84-95, Ovaa et al., Proc Natl Acad Sci USA 2004 101, 2253-2258).
The HA-Ub-VS probe (Hemagglutin tag-Ubiquitin-Vinyl Sulfone) was used in this study to directly visualize the activity of all deubiquitinating enzymes from cell lysates. This tool was used to evaluate the activity/specificity of our small molecule compounds on USP7 relative to all deubiquitinating enzymes active in physiological conditions.
Inducible USP7 shRNA HCT116 cells (previously treated with or without Doxycycline (2 μg/ml) for 4 days) as well as HEK293 cells were harvested and lysed on ice with a non denaturating buffer containing Tris pH 7.4, 50 mM; NaCl, 150 mM; MgCl2, 5 mM; EDTA, 0.5 mM; DTT, 2 mM; ATP, 2 mM; NP40, 0.5% and glycerol, 10%. Samples were incubated at 4° C. for 1 hour and clarified. Proteins were then quantified by Bradford method (Bio-Rad Protein Assay). 25 μg of proteins from native cell lysates were treated with compounds of examples 14 and 5 (from 100 μM to 3 μM) or with NEM (N-Ethylmaleimide, a thiol-reactive compound, 5 mM) for 2 hours at room temperature. The ubiquitin labeling reaction was initiated by the addition of HA-Ub-VS (8 μg/ml) in labeling buffer (Tris pH 7.6, 50 mM; MgCl2, 5 mM; EDTA, 0.5 mM; DTT, 2 mM; ATP, 2 mM; sucrose, 250 mM) and incubated at room temperature for 30 min. Samples were next heated at 100° C. for 10 minutes and briefly sonicated. They were resolved by SDS-polyacrylamide gel electrophoresis (SDS-PAGE), transferred to a nitrocellulose membrane and probed with antibodies against USP7 (Bethyl Lab, A300-034A), HA (BabCO, MMS-101P), and actin (Sigma, A2066). Horseradish peroxidase (HRP)-conjugated anti-mouse (Jackson Laboratories, 115-035-003) or HRP-conjugated anti-rabbit (Cell Signaling, 7074) antibodies were used as secondary antibodies. Signals were detected by enhanced chemiluminescence (ECL; Amersham) according to the reagent manufacturer's instructions.

Sequence of USP7 (Q93009 whole entry): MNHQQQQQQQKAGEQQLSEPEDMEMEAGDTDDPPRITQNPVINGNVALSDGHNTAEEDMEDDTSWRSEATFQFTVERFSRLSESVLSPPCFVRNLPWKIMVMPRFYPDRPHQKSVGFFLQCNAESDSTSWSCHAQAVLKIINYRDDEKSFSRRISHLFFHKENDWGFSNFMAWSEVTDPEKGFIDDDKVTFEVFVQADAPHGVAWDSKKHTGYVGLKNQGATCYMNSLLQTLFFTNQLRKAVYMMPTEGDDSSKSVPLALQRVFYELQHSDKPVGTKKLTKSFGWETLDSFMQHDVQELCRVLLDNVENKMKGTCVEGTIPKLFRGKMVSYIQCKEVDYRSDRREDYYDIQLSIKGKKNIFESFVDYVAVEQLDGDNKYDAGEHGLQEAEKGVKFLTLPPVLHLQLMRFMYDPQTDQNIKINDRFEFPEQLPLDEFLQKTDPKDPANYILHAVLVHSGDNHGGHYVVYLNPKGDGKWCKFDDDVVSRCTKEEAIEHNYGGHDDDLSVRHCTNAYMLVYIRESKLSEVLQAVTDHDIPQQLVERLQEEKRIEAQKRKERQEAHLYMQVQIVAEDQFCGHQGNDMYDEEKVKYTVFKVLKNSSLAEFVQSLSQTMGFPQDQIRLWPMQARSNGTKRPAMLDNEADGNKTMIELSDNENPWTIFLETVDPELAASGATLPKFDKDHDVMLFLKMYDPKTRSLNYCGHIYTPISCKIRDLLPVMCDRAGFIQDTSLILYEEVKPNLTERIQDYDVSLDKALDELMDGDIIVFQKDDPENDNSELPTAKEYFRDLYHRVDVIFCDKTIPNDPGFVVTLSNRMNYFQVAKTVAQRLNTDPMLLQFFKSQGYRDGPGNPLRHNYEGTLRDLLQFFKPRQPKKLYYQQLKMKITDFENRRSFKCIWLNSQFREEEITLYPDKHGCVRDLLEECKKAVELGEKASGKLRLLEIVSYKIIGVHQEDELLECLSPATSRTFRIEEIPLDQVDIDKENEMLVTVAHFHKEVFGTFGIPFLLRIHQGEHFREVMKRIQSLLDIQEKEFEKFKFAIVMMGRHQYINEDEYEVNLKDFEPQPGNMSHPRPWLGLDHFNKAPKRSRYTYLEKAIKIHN

HA-Ub-VS-USP7 protein level | Structure (SMILES)
specific and dose-dependent decrease | CCN(CCCNC(=O)c1ccc2c(Cl)c3c(nc2c1)CCCC3)Cc1ccccc1 [Example 5, 9-Chloro-5,6,7,8-tetrahydro-acridine-3-carboxylic acid [3-(benzyl-ethyl-amino)-propyl]-amide]
specific and dose-dependent decrease | CN(CCCNC(=O)c1ccc2c(Cl)c3c(nc2c1)CCCC3)Cc1ccccc1 [Example 14, 9-Chloro-5,6,7,8-tetrahydro-acridine-3-carboxylic acid [3-(benzyl-methyl-amino)-propyl]-amide]

Same assay, conditions: fixed dose 50 μM, anti-HA immunoblot

HA-Ub-VS labeled DUB bands after treatment (HA-Ub-VS-USP7 band) | Structure (SMILES)
only one band was decreased | CN(CCCNC(=O)c1ccc2c(Cl)c3c(nc2c1)CCCC3)Cc1ccccc1 [Example 14, 9-Chloro-5,6,7,8-tetrahydro-acridine-3-carboxylic acid [3-(benzyl-methyl-amino)-propyl]-amide]

These compounds were tested against T1, UCH-L1 (Homo sapiens, UniProt P09936) (assay: UCH-L1 activity assay (Ub-AMC)). Conditions: 300 nM Ub-AMC, 2.5 nM enzyme.
T1 sequence (P09936 1-223): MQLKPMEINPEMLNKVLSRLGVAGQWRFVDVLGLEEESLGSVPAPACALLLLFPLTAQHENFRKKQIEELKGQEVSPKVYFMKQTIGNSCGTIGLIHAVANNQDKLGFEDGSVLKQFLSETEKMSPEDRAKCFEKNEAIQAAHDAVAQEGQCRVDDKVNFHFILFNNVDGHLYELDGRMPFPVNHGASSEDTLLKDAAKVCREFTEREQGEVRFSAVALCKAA
Assay type: biochemical
Method: UCH-L1 was diluted in USP buffer (50 mM Tris HCl; 0.5 mM EDTA; 5 mM DTT; 0.01% Triton X-100; Bovine Serum Albumin 0.05 mg·ml^−1 pH 7.6). Compounds stocks (100 mM) were stored at −20° C. in DMSO. Compounds were tested at different concentrations: from 200 μM to 91 nM.
Reactions were performed as duplicates in Black 384 well plates (small volume microplates; Greiner; 10 μl final reaction volume). The substrate concentration for UCH-L1 was 300 nM Ub-AMC (Boston Biochem). The concentration of the enzyme (UCH-L1) in specificity assays was 2.5 nM. The concentrations were determined in order to perform specificity assays under initial velocities at fixed substrate concentration. Compounds were pre-incubated with enzymes for 30 minutes at 25° C. Reactions were initiated by addition of substrate to the plates containing the enzymes (+/−compounds) diluted in assay buffer. Reactions were incubated for 60 minutes at 37° C. Reactions were stopped by adding acetic acid (100 mM final). Readings were performed on a Pherastar Fluorescent Reader (BMG). λ Emission 380 nm; λ Excitation=460 nm. Data (mean values+/−standard deviation) were analyzed as % of control (no compound) and plotted as percentage versus the Log of the compound concentration using GraphPad (Prism). Data were fitted to a sigmoidal model (variable slope).

Structure (SMILES) | IC50 [µM]
CCN(CCCNC(=O)c1ccc2c(Cl)c3c(nc2c1)CCCC3)Cc1ccccc1 [Example 5, 9-Chloro-5,6,7,8-tetrahydro-acridine-3-carboxylic acid [3-(benzyl-ethyl-amino)-propyl]-amide] | > 200
CCCN(CCC)CCCNC(=O)c1ccc2c(Cl)c3c(nc2c1)CCCC3 [Example 6, 9-Chloro-5,6,7,8-tetrahydro-acridine-3-carboxylic acid (3-dipropylamino-propyl)-amide] | > 200
O=C(NCCCN1CCCC1)c1ccc2c(Cl)c3c(nc2c1)CCCC3 [Example 8, 9-Chloro-5,6,7,8-tetrahydro-acridine-3-carboxylic acid (3-pyrrolidin-1-yl-propyl)-amide] | > 200
CCCCN(CC)CCNC(=O)c1ccc2c(Cl)c3c(nc2c1)CCCC3 [Example 4, 9-Chloro-5,6,7,8-tetrahydro-acridine-3-carboxylic acid [2-(butyl-ethyl-amino)-ethyl]-amide] | > 200
CCN1CCCC1CNC(=O)c1ccc2c(Cl)c3c(nc2c1)CCCC3 (stereo not shown) [Example 2, 9-Chloro-5,6,7,8-tetrahydro-acridine-3-carboxylic acid (1-ethyl-pyrrolidin-2-ylmethyl)-amide] | > 200
CCCN(CCC)CCNC(=O)c1ccc2c(Cl)c3c(nc2c1)CCCC3 [Example 3, 9-Chloro-5,6,7,8-tetrahydro-acridine-3-carboxylic acid (2-dipropylamino-ethyl)-amide] | > 200
CCN(CC)CCNC(=O)c1ccc2c(Cl)c3c(nc2c1)CCCC3 [Example 7, 9-Chloro-5,6,7,8-tetrahydro-acridine-3-carboxylic acid (2-diethylamino-ethyl)-amide] | > 200
Cc1cccc(CN2CCC(CNC(=O)c3ccc4c(Cl)c5c(nc4c3)CCCC5)CC2)c1 [Example 1, 9-Chloro-5,6,7,8-tetrahydro-acridine-3-carboxylic acid [1-(3-methyl-benzyl)-piperidin-4-ylmethyl]-amide] | > 200

The remaining lines, values ahead:

IC50 [µM] | Structure (SMILES)
> 200 | CCN(CC)CCCNC(=O)c1ccc2c(Cl)c3c(nc2c1)CCCC3 [Example 10, 9-Chloro-5,6,7,8-tetrahydro-acridine-3-carboxylic acid (3-diethylamino-propyl)-amide]
> 200 | CN(C)CCNC(=O)c1ccc2c(Cl)c3c(nc2c1)CCCC3 [Example 11, 9-Chloro-5,6,7,8-tetrahydro-acridine-3-carboxylic acid (2-dimethylamino-ethyl)-amide]
> 200 | CN(CCCNC(=O)c1ccc2c(Cl)c3c(nc2c1)CCCC3)Cc1ccccc1 [Example 14, 9-Chloro-5,6,7,8-tetrahydro-acridine-3-carboxylic acid [3-(benzyl-methyl-amino)-propyl]-amide]
> 200 | O=C(c1ccc2c(Cl)c3c(nc2c1)CCCC3)N1CCC(N2CCCCC2)CC1 [Example 16, [1,4′]Bipiperidinyl-1′-yl-(9-chloro-5,6,7,8-tetrahydro-acridin-3-yl)-methanone]
> 200 | CC1CCCC(C)N1CCCNC(=O)c1ccc2c(Cl)c3c(nc2c1)CCCC3 (stereo not shown) [Example 9, 9-Chloro-5,6,7,8-tetrahydro-acridine-3-carboxylic acid [3-(2,6-dimethyl-piperidin-1-yl)-propyl]-amide]
> 200 | O=C(c1ccc2c(Cl)c3c(nc2c1)CCCC3)N1CCCCCC1 [Example 12, Azepan-1-yl-(9-chloro-5,6,7,8-tetrahydro-acridin-3-yl)-methanone]
> 200 | CN1CCN(CCCNC(=O)c2ccc3c(Cl)c4c(nc3c2)CCCC4)CC1 [Example 15, 9-Chloro-5,6,7,8-tetrahydro-acridine-3-carboxylic acid [3-(4-methyl-piperazin-1-yl)-propyl]-amide]
> 200 | CCCN1CCN(CCCNC(=O)c2ccc3c(Cl)c4c(nc3c2)CCCC4)CC1 [Example 13, 9-Chloro-5,6,7,8-tetrahydro-acridine-3-carboxylic acid [3-(4-propyl-piperazin-1-yl)-propyl]-amide]
